Test results published in article PMC5146284, “Molecular imaging with engineered physiology” (Nature Communications, 2016).

Experiments:
TEV protease = experiment: Proteolytic cleavage by TEV protease (SDS-PAGE); assay type: biochemical; conditions: 10 µM sensor, 2 h, 37 °C
Method: (§1) Proteolytic cleavage reactions
(§2) Supplementary Fig. 4. Proteolytic cleavage of candidate sensors and assessment by bioas-say. (a-e) Cleavage reaction products after incubation of 10 µM sensor with or without enzyme for 2 h at 37 °C. (a) MALDI mass spectrum of sensor (1) after incubation with or without FAP […]
(§3) (b) SDS-PAGE analysis of sensor
(§4) (c) SDS-PAGE analysis of sensor (3) after incubation with different concentrations of EK light […]
(§5) (d) SDS-PAGE analysis of sen- […]
(§6) and liberation of free CGRP. (f-k) Dose-response curves of uncleaved and cleaved sensors in […]
(§7) (f) Dose-response curves for Sensors (2-4) at final assay concentrations up to 10 uM (addition of 10 µL of 100 µM solution to 90 µL medium per well in bioassay) show no receptor activation by uncleaved GFP-linker-CGRP-G sensors even at 10-fold higher concentrations than were used in cleavage assays (g-k). (g-k) Dose-response curves for reaction products from (a-e). Error bars in (f-k) denote SD of measurements performed in triplicate.
(§8) (1 picture or pasted object on this page, not shown here)

rat brain (thalamus) = experiment: MRI of haemodynamic response to intracranial CGRP infusion; assay type: in vivo, rat (Sprague-Dawley); conditions: inferred from MRI time course during intracranial infusion
Description: Haemodynamic contrast provided sufficient resolution to monitor convective spread of the imaging agent from the site of infusion (Supplementary Fig. 1b).
Magnetic resonance imaging
Nineteen Sprague-Dawley rats were used for in vivo MRI experiments. […]
Animals were scanned by MRI to measure the changes in haemodynamic contrast following intracranial injections. […] Breathing rate and end-tidal expired isoflurane were continuously monitored. […]
Signals were averaged over six animals in 1.5 mm square regions of interest (ROIs) positioned around the infusion cannulae tips in each animal (cf. Fig. 2d); gray shading denotes standard errors as a function of time. (b) Time courses from multiple approximately concentric ROIs (diagrammed at left) were analyzed to determine whether hemodynamic MRI has sufficient spatial resolution to monitor convection of CGRP from the infusion site. For each ROI, the delay between the start of infusion and the ob-servation of statistically significant signal changes from baseline was measured (color coded bars at right). […]

[1] = test system: enterokinase (EK) light chain; experiment: Proteolytic cleavage by enterokinase light chain (SDS-PAGE); assay type: biochemical; conditions: 10 µM sensor, 2 h, 37 °C, different EK concentrations
Method: as §1, §2, §3, §4, §5, §6, §7, §8

cfSGFP2-ENLYFQG-CGRP-G [Sensor (2), recombinant fusion of cysteine-free GFP, a short linker, TEV protease site and non-amidated CGRP]
cleavage by TEV protease (TEV protease): substantial but not complete cleavage

CC(C)C[C@H](NC(=O)CNC(=O)[C@H](C)NC(=O)[C@H](CC(C)C)NC(=O)[C@H](CCCNC(=N)N)NC(=O)[C@H](Cc1cnc[nH]1)NC(=O)[C@@H](NC(=O)[C@@H](NC(=O)[C@@H]1CSSC[C@H](NC(=O)[C@H](C)N)C(=O)N[C@@H](CC(=O)O)C(=O)N[C@@H]([C@@H](C)O)C(=O)N[C@@H](C)C(=O)N[C@@H]([C@@H](C)O)C(=O)N1)C(C)C)[C@@H](C)O)C(=O)N[C@@H](CC(C)C)C(=O)N[C@@H](CO)C(=O)N[C@@H](CCCNC(=N)N)C(=O)N[C@@H](CO)C(=O)NCC(=O)NCC(=O)N[C@H](C(=O)N[C@H](C(=O)N[C@@H](CCCCN)C(=O)N[C@@H](CC(N)=O)C(=O)N[C@@H](CC(N)=O)C(=O)N[C@@H](Cc1ccccc1)C(=O)N[C@H](C(=O)N1CCC[C@H]1C(=O)N[C@H](C(=O)N[C@@H](CC(N)=O)C(=O)N[C@H](C(=O)NCC(=O)N[C@@H](CO)C(=O)N[C@@H](CCCCN)C(=O)N[C@@H](C)C(=O)N[C@@H](Cc1ccccc1)C(N)=O)C(C)C)[C@@H](C)O)C(C)C)C(C)C)C(C)C [wtCGRP, calcitonin gene-related peptide]
removal or degradation in brain tissue (rat brain (thalamus)): not rapidly removed or degraded in brain tissue

cfSGFP2-DDDDK-CGRP-G [Sensor (3), recombinant fusion of cysteine-free GFP, a short linker, enterokinase site and non-amidated CGRP]
cleavage by EK light chain [1]: increasing cleavage with increasing concentrations
